Measurements published in patent US11479802B2, “Assays for screening activity of modulators of members of the hydroxy steroid (17-beta) dehydrogenase (HSD17B) family” (Regeneron Pharmaceuticals, Inc., priority 2017, dated 2022).

Legend:
Format in all cases: biochemical
HSD17B1 = target: T1, HSD17B1 (Homo sapiens, UniProt P14061); experiment: Steroid substrate panel against HSD17B family member B1; settings: substrate at 50 μM; estradiol set as 100%
T1 construct: made in house
T1 sequence (P14061 1-328): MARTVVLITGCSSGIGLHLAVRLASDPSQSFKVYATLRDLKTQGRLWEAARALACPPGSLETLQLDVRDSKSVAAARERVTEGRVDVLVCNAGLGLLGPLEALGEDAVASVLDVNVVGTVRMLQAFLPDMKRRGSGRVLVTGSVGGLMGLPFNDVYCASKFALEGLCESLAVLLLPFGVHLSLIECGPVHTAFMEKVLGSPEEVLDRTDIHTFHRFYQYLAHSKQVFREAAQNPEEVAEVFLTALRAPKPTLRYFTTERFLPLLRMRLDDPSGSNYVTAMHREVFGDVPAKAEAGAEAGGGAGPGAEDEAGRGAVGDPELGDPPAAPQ
Procedure: (§1) To understand the functional consequences of premature truncation of the HSD17B13 protein due to rs72613567:TA (the associated variant, rs72613567, is an insertion of an adenine adjacent to the donor splice site of exon six (TA allele)), the enzymatic activity of isoforms A and D was evaluated in vitro using recombinant protein and nicotinamide […] dinucleotide as cofactor. Reactions were performed in a final volume of 40 μl of assay buffer (0.2 M Tris-HCl, pH 7.5) which contained 500 μM NAD^+, 5 μM bioactive lipid or 50 μM steroid (all in a final concentration of 5% DMSO), and 100 ng of recombinant human HSD17B13. Reactions were incubated for 3 hours, at 23° C., after which an equal volume detection reagent was added. Following a 1 hour incubation at 23° C., the relative light units (RLUs) were measured on an Envision Plate Reader (Perkin Elmer). Raw RLU values were normalized as percent of control (50 μM estradiol) following subtraction of negative control (5% DMSO) using the following formula: Percent of control (POC)=100×(Sample (RLU)−Negative CTRLaverage)/(Positive CTRLaverage−Negative CTRLaverage).
(§2) In order to determine specificity of compounds with inhibitory activity against HSD17B13, assays for selected members of the HSD17B family which includes HSD17B1-HSD17B14 were established. As a first step, selected family members were expressed, purified and tested for activity a using a steroid substrate panel. Substrates from the steroid panel were tested at 50 μM, using the standard assay protocol. Activity against the substrates for each HSD17B family member were normalized to Percent of Control (POC). The control, estradiol, was set as 100%.

HSD17B2 = target: T2, HSD17B2 (Homo sapiens, UniProt P37059); experiment: Steroid substrate panel against HSD17B family member B2; settings: substrate at 50 μM; estradiol set as 100%
T2 construct: made in house
T2 sequence (P37059 1-387): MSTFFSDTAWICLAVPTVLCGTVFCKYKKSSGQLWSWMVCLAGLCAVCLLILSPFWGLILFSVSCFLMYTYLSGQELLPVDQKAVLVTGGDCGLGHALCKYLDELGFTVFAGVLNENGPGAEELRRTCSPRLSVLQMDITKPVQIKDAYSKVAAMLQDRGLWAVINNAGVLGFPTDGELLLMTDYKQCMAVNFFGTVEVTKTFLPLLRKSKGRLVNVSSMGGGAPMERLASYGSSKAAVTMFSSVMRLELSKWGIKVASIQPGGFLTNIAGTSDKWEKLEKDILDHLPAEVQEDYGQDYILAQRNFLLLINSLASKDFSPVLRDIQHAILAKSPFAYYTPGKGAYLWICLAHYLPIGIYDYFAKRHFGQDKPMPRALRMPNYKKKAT
Procedure: as §1, §2

HSD17B4 = target: T3, HSD17B4 (Homo sapiens, UniProt P51659); experiment: Steroid substrate panel against HSD17B family member B4; settings: substrate at 50 μM; estradiol set as 100%
T3 construct: made in house
T3 sequence (P51659 1-736): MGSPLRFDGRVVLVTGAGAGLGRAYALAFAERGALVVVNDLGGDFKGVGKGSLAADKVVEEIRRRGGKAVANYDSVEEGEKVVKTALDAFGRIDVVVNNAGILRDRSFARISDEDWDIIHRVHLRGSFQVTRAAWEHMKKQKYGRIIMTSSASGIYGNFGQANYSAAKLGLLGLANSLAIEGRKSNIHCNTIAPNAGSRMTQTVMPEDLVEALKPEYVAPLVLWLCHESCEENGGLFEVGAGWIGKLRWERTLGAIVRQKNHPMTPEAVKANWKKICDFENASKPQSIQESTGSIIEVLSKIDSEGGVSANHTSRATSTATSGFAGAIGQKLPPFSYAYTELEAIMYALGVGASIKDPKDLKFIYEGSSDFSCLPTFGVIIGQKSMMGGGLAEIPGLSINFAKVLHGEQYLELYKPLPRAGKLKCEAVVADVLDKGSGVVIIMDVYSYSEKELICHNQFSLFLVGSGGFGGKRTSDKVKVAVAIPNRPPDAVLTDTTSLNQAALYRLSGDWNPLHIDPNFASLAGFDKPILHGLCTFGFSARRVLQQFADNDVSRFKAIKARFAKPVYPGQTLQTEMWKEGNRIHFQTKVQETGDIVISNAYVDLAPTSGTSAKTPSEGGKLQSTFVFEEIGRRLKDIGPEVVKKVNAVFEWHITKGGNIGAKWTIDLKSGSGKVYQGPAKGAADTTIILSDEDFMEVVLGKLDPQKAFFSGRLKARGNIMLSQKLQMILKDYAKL
Procedure: as §1, §2

HSD17B5 = target: T4, HSD17B5 (Homo sapiens, UniProt P42330); experiment: Steroid substrate panel against HSD17B family member B5; settings: substrate at 50 μM; estradiol set as 100%
T4 construct: made in house
T4 sequence (P42330 1-323): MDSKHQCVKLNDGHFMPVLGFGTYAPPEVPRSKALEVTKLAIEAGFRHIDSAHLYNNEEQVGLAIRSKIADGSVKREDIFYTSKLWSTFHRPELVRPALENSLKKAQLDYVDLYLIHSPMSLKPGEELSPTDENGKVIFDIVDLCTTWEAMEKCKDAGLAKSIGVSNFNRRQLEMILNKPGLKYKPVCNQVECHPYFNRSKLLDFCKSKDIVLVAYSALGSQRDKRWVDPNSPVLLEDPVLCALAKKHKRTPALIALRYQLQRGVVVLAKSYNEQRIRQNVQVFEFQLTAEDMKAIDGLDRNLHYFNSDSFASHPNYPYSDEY
Procedure: as §1, §2

HSD17B10 = target: T5, HSD17B10 (Homo sapiens, UniProt Q99714); experiment: Steroid substrate panel against HSD17B family member B10; settings: substrate at 50 μM; estradiol set as 100%
T5 construct: made in house
T5 sequence (Q99714 1-261): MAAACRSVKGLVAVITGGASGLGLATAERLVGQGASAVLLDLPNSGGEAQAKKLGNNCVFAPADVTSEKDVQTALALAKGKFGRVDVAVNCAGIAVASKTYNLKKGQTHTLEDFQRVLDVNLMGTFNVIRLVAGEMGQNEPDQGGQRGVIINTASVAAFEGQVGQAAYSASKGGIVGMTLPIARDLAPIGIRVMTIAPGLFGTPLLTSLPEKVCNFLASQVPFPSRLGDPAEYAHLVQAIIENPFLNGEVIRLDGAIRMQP
Procedure: as §1, §2

HSD17B11 = target: T6, HSD17B11 (Homo sapiens, UniProt Q8NBQ5); experiment: Steroid substrate panel against HSD17B family member B11; settings: substrate at 50 μM; estradiol set as 100%
T6 construct: made in house
T6 sequence (Q8NBQ5 20-300): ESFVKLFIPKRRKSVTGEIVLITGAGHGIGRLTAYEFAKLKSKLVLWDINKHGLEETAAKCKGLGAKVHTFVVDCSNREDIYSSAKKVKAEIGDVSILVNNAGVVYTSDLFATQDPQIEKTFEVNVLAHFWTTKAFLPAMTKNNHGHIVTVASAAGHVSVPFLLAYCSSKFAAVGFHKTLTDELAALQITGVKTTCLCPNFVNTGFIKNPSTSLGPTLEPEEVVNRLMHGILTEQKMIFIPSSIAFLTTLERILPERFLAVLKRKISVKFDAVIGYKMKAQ
Procedure: as §1, §2

human HSD17B13 = target: T7, human HSD17B13 (Homo sapiens, UniProt Q7Z5P4); experiment: Substrate screening of steroid and bioactive lipid libraries against purified recombinant HSD17B13 (NADH-linked luciferase assay); settings: for HSD17B13 Enzymatic Activity Relative Light Units: 500 μM NAD+, 100 ng enzyme, 3 hours at 23° C.; for HSD17B13 Enzymatic Activity Percent Estradiol Control: normalized to 50 μM estradiol after subtraction of 5% DMSO
T7 sequence (Q7Z5P4 20-300): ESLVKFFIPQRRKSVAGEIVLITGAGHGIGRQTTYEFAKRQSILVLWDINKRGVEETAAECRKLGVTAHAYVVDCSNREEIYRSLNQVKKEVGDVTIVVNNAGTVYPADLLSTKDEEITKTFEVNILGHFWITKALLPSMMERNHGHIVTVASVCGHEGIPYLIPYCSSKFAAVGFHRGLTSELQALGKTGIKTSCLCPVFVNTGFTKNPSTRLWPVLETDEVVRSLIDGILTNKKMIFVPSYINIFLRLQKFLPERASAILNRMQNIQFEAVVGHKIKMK
Summary of the method: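 Substrates (bioactive lipids 5 μM, steroids 50 μM; 5% DMSO) tested with 500 μM NAD+ and 100 ng recombinant human HSD17B13 in 0.2 M Tris-HCl pH 7.5, 3 h, 23° C. Luminescent NADH detection followed 1 h later; RLU normalized to estradiol (50 μM, 100%) and DMSO (0%) controls.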

[1] = Bioactive Lipid Library, 5 μM bioactive lipid
[2] = Bioactive Lipid Library, 5 μM bioactive lipid (Estradiol Control 50 μM)

Row | Structure (SMILES) | Percent of Control (POC), B1 (HSD17B1) | Percent of Control (POC), B2 (HSD17B2) | Percent of Control (POC), B4 (HSD17B4) | Percent of Control (POC), B5 (HSD17B5) | Percent of Control (POC), B10 (HSD17B10) | Percent of Control (POC), B11 (HSD17B11) | HSD17B13 Enzymatic Activity Relative Light Units (human HSD17B13; Steroid Library, 50 μM steroid) | HSD17B13 Enzymatic Activity Percent Estradiol Control (human HSD17B13; Steroid Library, 50 μM steroid) | HSD17B13 Enzymatic Activity Percent Estradiol Control (human HSD17B13; [1]) | HSD17B13 Enzymatic Activity Percent Estradiol Control (human HSD17B13; Steroid Library, 50 μM steroid, listed as Beta-estradiol) | HSD17B13 Enzymatic Activity Percent Estradiol Control (human HSD17B13; Steroid Library, 50 μM steroid, listed as Estradiol Control) | HSD17B13 Enzymatic Activity Relative Light Units (human HSD17B13; [2])
1 | C[C@]12CC[C@@H](O)C[C@@H]1CC[C@@H]1[C@@H]2CC[C@]2(C)[C@@H](O)CC[C@@H]12 [3a-androstanediol] | 0.0% | 6.2% | 16.4% | 196% | −0.4% | 0.0% |  |  |  |  |  | 
2 | CC1(C)[C@@H](O[C@H]2O[C@H](C(=O)O)[C@@H](O)[C@H](O)[C@H]2O[C@@H]2O[C@H](C(=O)O)[C@@H](O)[C@H](O)[C@H]2O)CC[C@]2(C)[C@H]3C(=O)C=C4[C@@H]5C[C@@](C)(C(=O)O)CC[C@]5(C)CC[C@@]4(C)[C@]3(C)CC[C@@H]12 [Glycyrrhizic acid] | −0.1% | 0.0% | 0.7% | 0% | 0.1% | 32.7% | 163600 RLU | 0.05% |  |  |  | 
3 | C[C@]12CC[C@@H](O)C[C@H]1CC[C@@H]1[C@@H]2C(=O)C[C@]2(C)C(=O)CC[C@@H]12 [11-oxo-etiocholanolone] | −0.1% | 0.0% | 0.2% | 13% | 30.7% | 0.0% | 195960 RLU | 0.62% |  |  |  | 
4 | C[C@H](O)[C@@]1(O)CC[C@H]2[C@@H]3CC[C@@H]4C[C@H](O)CC[C@]4(C)[C@H]3CC[C@@]21C [Pregnanetriol] | −0.1% | 6.1% | 0.4% | 48% | 26.4% | 26.1% | 163920 RLU | 0.06% |  |  |  | 
5 | C[C@]12CC[C@@H]3c4ccc(O)cc4CC[C@H]3[C@@H]1CC[C@@H]2O [Estradiol] | 100% | 100% | 100% | 100% | 100% | 100% |  | 85.76% | 100.00% | 72.17% | 100.00% | 
6 | C[C@]12CCC(=O)C[C@@H]1CC[C@@H]1[C@@H]2CC[C@]2(C)[C@@H](O)CC[C@@H]12 [DHT, dihydroxy testosterone (DHT)] | 0.4% | 61.2% | 37.1% | 0% | 3.3% | 12.7% | 1886360 RLU | 30.14% |  |  |  | 
7 | CC/C=C\C[C@H]1C(=O)C=C[C@@H]1CCCCCCCC(=O)O [13-epi-12-oxo Phytodienoic Acid] |  |  |  |  |  |  |  |  | 2.97% |  |  | 320640 RLU
8 | CC(C)OC(=O)CCC/C=C\C[C@@H]1[C@@H](/C=C/[C@@H](O)COc2cccc(C(F)(F)F)c2)[C@H](O)C[C@@H]1O [Fluprostenol isopropyl ester] |  |  |  |  |  |  |  |  | 14.54% |  |  | 467040 RLU
9 | CC/C=C\C[C@@H](/C=C/C=C\CCCCCCCC(=O)O)OO [13(S)-HpOTrE] |  |  |  |  |  |  |  |  | −18.70% |  |  | 35320 RLU
10 | CC/C=C\C/C=C\C/C=C\CC(O)/C=C/C=C\CCCC(=O)O (racemic) [(±)9-HEPE] |  |  |  |  |  |  |  |  | 30.72% |  |  | 699960 RLU
